Source: patent US12396459B2, “Synergistically effective herbicide composition comprising pyridate and at least one defined 4-HPPD inhibitor” (BELCHIM CROP PROTECTION NV, priority 2018, dated 2025)

Key:
Format in all cases: in vivo
Polygonum aviculare = experiment: Field trial post-emergence in maize: POLAV
Description: (§1) Herbicidal activity of herbicide compositions according to the first aspect of the present invention with regard to different types of unwanted vegetation was determined during trials performed on test fields (field trials). Individual compositions comprising pyridate and individual compositions comprising a defined 4-HPPD inhibitor are compared with a herbicide composition according to the invention comprising both pyridate and a defined 4-HPPD inhibitor. The expected activity of the combination of the active compounds pyridate and a defined 4-HPPD inhibitor is calculated according to above mentioned calculation method by Colby, in order to evaluate a synergistic effect between pyridate and a defined 4-HPPD inhibitor.
(§2) Herbicidal activity was determined by applying herbicide compositions on emerged unwanted vegetation on fields where maize was cultivated. Pyridate and a defined 4-HPPD inhibitor were applied as a tank mixture by mixing these active compounds prior to use in a spray tank. The corresponding mixture was in the form of a spray liquor. Besides, spray liquors of individual compositions comprising pyridate and of individual compositions comprising a defined 4-HPPD inhibitor were used. Test plants of unwanted vegetation with a growth stage corresponding to BBCH 10-18 (according to the extended BBCH-scale) were sprayed with the active compound preparations such that particular desired amounts of active compounds are applied per unit area. Spray liquor was diluted with water to arrive at an application volume of 50 to 450 L/ha. At a specified number of days after application (DAA), the degree of damage to the unwanted vegetation is rated in % of plants of unwanted vegetation that were killed, which was assessed by visually controlling the plants.
(§3) Example 1 concerns a herbicide composition comprising a combination of pyridate and mesotrione, which was applied post-emergence on unwanted vegetation on a field where maize was cultivated, according to the test conditions mentioned above.

Veronica persica [1] = experiment: Field trial post-emergence in maize: VERPE; details: for herbicidal effect (h.e.): g a.c./ha: PYR 300, MES 100, PYR + MES 300 + 90
Description: as §1, §2

Matricaria chamomilla [2] = experiment: Field trial post-emergence in maize: MATCH
Description: as §1, §2, §3

Erodium ciconium = experiment: Field trial post-emergence in maize: EROCC
Description: as §1, §2, §3

Stellaria media = experiment: Field trial post-emergence in maize: STEME
Description: as §1, §2

Xanthium spinosum = experiment: Field trial post-emergence in maize: XANSP; details: 7-14 DAA; # = 3; g a.c./ha: PYR 300, MES 100, PYR + MES 300 + 90
Description: as §1
Herbicidal activity was determined by applying herbicide compositions on emerged unwanted vegetation on fields where maize was cultivated. Pyridate and a defined 4-HPPD inhibitor were applied as a tank mixture by mixing these active compounds prior to use in a spray tank. The corresponding mixture was in the form of a spray liquor. […] At a specified number of days after application (DAA), the degree of damage to the unwanted vegetation is rated in % of plants of unwanted vegetation that were killed, which was assessed by visually controlling the plants.

Veronica persica [3] = experiment: Examples 6-8 herbicidal effect: VERPE; details: 7 DAA
Matricaria chamomilla [4] = experiment: Examples 6-8 herbicidal effect: MATCH; details: 7 DAA
Echinochloa crus-galli = experiment: Field trial post-emergence in maize: ECHCG; details: for herbicidal effect (h.e.): g a.c./ha: PYR 300, MES 100, PYR + MES 300 + 90
Description: as §1, §2

Setaria verticillata = experiment: Examples 6-8 herbicidal effect: SETVE; details: 7 DAA
[5] = test system: Brassica rapa Canola cultivars; experiment: Field trial post-emergence in maize: BRSRC; details: 13-14 DAA; # = 1; g a.c./ha: PYR 450, MES 144, PYR + MES 450 + 144
Description: as §1, §2

Setaria viridis = experiment: Field trial post-emergence in maize: SETVI
Description: as §1, §2, §3

[6] = g a.c./ha: MES 50, PYR + SMO 300 + 800
[7] = g a.c./ha: MES 80, PYR + MES 300 + 50

For `CS(=O)(=O)c1ccc(C(=O)C2C(=O)CCCC2=O)c([N+](=O)[O-])c1` [MES, 2-(4-methylsulfonyl-2-nitrobenzoyl) cyclohexane-1,3-dione], the MES h.e. (Polygonum aviculare; POLAV 14-20 DAA 45 g a.c./ha) was 61%, the MES h.e. (Polygonum aviculare; POLAV 14-20 DAA 90 g a.c./ha) was 76% and the MES h.e. (Polygonum aviculare; POLAV 24-31 DAA 90 g a.c./ha) was 58%. The “herbicidal effect (h.e.)” value (Veronica persica [1]; 7-14 DAA, # = 4) was 91%, the “herbicidal effect (h.e.)” value (Veronica persica [1]; 31-48 DAA, # = 5) was 93% and the MES h.e. (Veronica persica [1]; VERPE 14-20 DAA 45 g a.c./ha) was 20%. It also gave an MES h.e. (Veronica persica [1]; VERPE 14-20 DAA 90 g a.c./ha) of 75%, an MES h.e. (Veronica persica [1]; VERPE 14-20 DAA 135 g a.c./ha) of 70% and an MES h.e. (Veronica persica [1]; VERPE 24-31 DAA 45 g a.c./ha) of 10%. For the same compound, the MES h.e. (Veronica persica [1]; VERPE 24-31 DAA 90 g a.c./ha) was 55%, the MES h.e. (Veronica persica [1]; VERPE 24-31 DAA 135 g a.c./ha) was 60% and the MES h.e. (Matricaria chamomilla [2]; MATCH 14-20 DAA 45 g a.c./ha) was 53%. The MES h.e. (Matricaria chamomilla [2]; MATCH 14-20 DAA 90 g a.c./ha) was 72%, the MES h.e. (Matricaria chamomilla [2]; MATCH 14-20 DAA 135 g a.c./ha) was 81% and the MES h.e. (Matricaria chamomilla [2]; MATCH 24-31 DAA 45 g a.c./ha) was 43%. The MES h.e. (Matricaria chamomilla [2]; MATCH 24-31 DAA 90 g a.c./ha) was 77%, the MES h.e. (Matricaria chamomilla [2]; MATCH 24-31 DAA 135 g a.c./ha) was 93% and the MES h.e. (Erodium ciconium; EROCC 14-20 DAA 90 g a.c./ha) was 32%. The MES h.e. (Erodium ciconium; EROCC 14-20 DAA 135 g a.c./ha) was 33%, the “herbicidal effect (h.e.)” value (Stellaria media; 18-28 DAA, # = 4, g a.c./ha: PYR 300, MES 100, PYR + MES 300 + 90) was 98% and the MES h.e. (Stellaria media; STEME 14-20 DAA 45 g a.c./ha) was 78%. It also gave an MES h.e. (Stellaria media; STEME 14-20 DAA 90 g a.c./ha) of 93%, an MES h.e. (Stellaria media; STEME 14-20 DAA 135 g a.c./ha) of 93% and an MES h.e. (Stellaria media; STEME 24-31 DAA 45 g a.c./ha) of 70%. The MES h.e. (Stellaria media; STEME 24-31 DAA 90 g a.c./ha) was 87%, the MES h.e. (Stellaria media; STEME 24-31 DAA 135 g a.c./ha) was 93% and the “herbicidal effect (h.e.)” value (Xanthium spinosum) was 97%. For the same compound, the “herbicidal effect (h.e.)” value (Veronica persica [3]; [6]) was 33%, the “herbicidal effect (h.e.)” value (Veronica persica [3]; [7]) was 57% and the “herbicidal effect (h.e.)” value (Matricaria chamomilla [4]; [6]) was 25%. The “herbicidal effect (h.e.)” value (Matricaria chamomilla [4]; [7]) was 53%, the “herbicidal effect (h.e.)” value (Echinochloa crus-galli; 7-14 DAA, # = 9) was 67% and the “herbicidal effect (h.e.)” value (Echinochloa crus-galli; 18-28 DAA, # = 14) was 51%. The “herbicidal effect (h.e.)” value (Echinochloa crus-galli; 31-48 DAA, # = 13) was 50%, the MES h.e. (Echinochloa crus-galli; ECHCG 14-20 DAA 45 g a.c./ha) was 86% and the MES h.e. (Echinochloa crus-galli; ECHCG 14-20 DAA 90 g a.c./ha) was 95%. It also gave an MES h.e. (Echinochloa crus-galli; ECHCG 14-20 DAA 135 g a.c./ha) of 97%, an MES h.e. (Echinochloa crus-galli; ECHCG 24-31 DAA 45 g a.c./ha) of 80% and an MES h.e. (Echinochloa crus-galli; ECHCG 24-31 DAA 90 g a.c./ha) of 95%. For the same compound, the MES h.e. (Echinochloa crus-galli; ECHCG 24-31 DAA 135 g a.c./ha) was 97%, the “herbicidal effect (h.e.)” value (Setaria verticillata; [6]) was 0% and the “herbicidal effect (h.e.)” value (Setaria verticillata; [7]) was 3%. For the same compound, the “herbicidal effect (h.e.)” value [5] was 88%, the MES h.e. (Setaria viridis; SETVI 14-20 DAA 45 g a.c./ha) was 83% and the MES h.e. (Setaria viridis; SETVI 14-20 DAA 90 g a.c./ha) was 92%. The MES h.e. (Setaria viridis; SETVI 14-20 DAA 135 g a.c./ha) was 95%, the MES h.e. (Setaria viridis; SETVI 24-31 DAA 45 g a.c./ha) was 72% and the MES h.e. (Setaria viridis; SETVI 24-31 DAA 90 g a.c./ha) was 92%. The MES h.e. (Setaria viridis; SETVI 24-31 DAA 135 g a.c./ha) was 95%.
